Test results reported in publication PMC4861708 (Frontiers in Cell and Developmental Biology, 2016).
Converted amounts (≈) assume the structure as drawn. Where a SMILES comes first, the peptide text is derived from it. [ ]: non-standard residue; d: D form. The star is where a group is joined. Orn(α-tetramethylguanidino) = CN(C)C(=N[C@@H](CCCN)C(=O)*)N(C)C; Orn = NCCC[C@H](N)C(=O)O

Legend:
[1] = system: E. coli DSM 1103 (ATCC 25922); format: cell-based, Escherichia coli; conditions: DSM 1103, 24 h
Protocol: (§1) MICs of P. aeruginosa strains DSM 1117 (ATCC 27853), DSM 3227 (ATCC 19429), and DSM 9644 were determined in a microdilution broth assay using 50 or 100% MHB (11.5 and 23 g/L MHB, respectively) whereas MICs of E. coli DSM 1103 (ATCC 25922) and K. pneumoniae DSM 681 (ATCC 10031) were determined in TSB (30 g/L TSB). Peptides (1 g/L in water) were serially two-fold diluted in a 96-well microtiter plate (PS, sterile, flat bottom) in 50 μL of the corresponding medium to final concentrations of 512–4 μg/mL. Bacteria were grown in nutrient broth overnight and diluted to a cell concentration of 1.5 × 10^7 cells/mL in the corresponding medium. Cell densities were determined by using the McFarland standard as reference. An aliquot (50 μL) of the cell culture was added to each well and incubated (37°C, 24 h). The OD595 was determined in a SpectraMax 340PC (Molecular Devices, Sunnyvale, USA). Additionally, MIC values were also determined for high bacteria densities (5 × 10^8 cells/mL) corresponding to the conditions used for TEM, as described above.

[2] = system: HEK293 cells; experiment: in vitro; format: cell-based, human; conditions: 24 h
Protocol: (§2) Human embryonic kidney (HEK293) and HeLa cells were cultured in Dulbecco's modified Eagle's/Ham's F-12 medium [DMEM/F-12 (1:1)] supplemented with FBS (10% v/v), penicillin, and streptomycin (1000 units each). Primary rat cardiomyocytes (Innoprot, Elexalde Derio, Spain) were grown in medium supplemented with FBS (20% v/v), horse serum (5% v/v), L-glutamine (2 mmol/L), sodium pyruvate (2 mmol/L), MEM non-essential amino acids (Gibco, 0.1 mmol/L), penicillin, and streptomycin (1000 units each). Surfaces for cardiomyocyte growth were coated with attachment factor first. Cells (20,000/well) were seeded into a 96-well plate (PS, sterile, flat bottom), incubated for 24 h (37°C, 5% CO2), and washed twice with PBS (100 μl/well) prior to adding colorless medium (88 μL) and peptide solution (12 μL; 5, 2.5, 1.25, […], and 0.625 g/L in PBS). Positive controls were triton X-100 (1%, v/v) and melittin (60 mg/L) as lytic peptide, whereas PBS (12%, v/v) served as negative control. After an incubation period of 24 h, supernatant (25 μL) was mixed with lactate dehydrogenase (LDH) substrate (175 μL; 0.57 mmol/L sodium pyruvate, 0.24 mmol/L NADH disodium salt, 32 mmol/L potassium dihydrogen phosphate, 66 mmol/L dipotassium phosphate) in 96-well plates (PS, sterile, flat bottom). Absorbance was recorded at 340 nm every 3 min for 30 min on the Paradigm microplate reader. Due to the total release of LDH upon triton X-100 treatment, the control contained high LDH concentrations resulting in a fast substrate turnover that was only linear for the first 6 min.
(§3) The MTT cell viability assay relied on the same cell culture. Remaining medium was replaced by a mixture of fresh colorless medium (100 μL) and MTT (10 μL; 5 g/L in PBS) and incubated for 4 h (37°C, 5% CO2). A solution of sodium dodecyl sulfate (100 μL; 10%, w/v) dissolved in hydrochloric acid (10 mmol/L) was added, incubated (16 h), and the absorbance recorded at 590 nm relative to the reference at 650 nm (Paradigm microplate reader). The relative cell viability was calculated by [(ODPeptide − ODTriton)/(ODPBS − ODTriton)] × 100% and half-maximal inhibitory concentrations (IC50) with an Excel-template from cell biology protocols (www.sciencegateway.org/ protocols/cellbio/drug/hcic50.htm). For statistical analysis an unpaired t-test was applied using GraphPad Prism 5.0.

[3] = in vitro; format: cell-based, human; conditions: human
Protocol: as §2, §3

[4] = system: Primary rat cardiomyocytes; experiment: in vitro; format: cell-based; conditions: 24 h
Protocol: as §2, §3

[5] = system: K. pneumoniae DSM 681 (ATCC 10031); format: cell-based, Klebsiella pneumoniae; conditions: DSM 681, 24 h
Protocol: as §1

[6] = system: HeLa cells; experiment: in vitro; format: cell-based; conditions: 24 h
Protocol: as §2, §3

[7] = in vitro; format: cell-based; conditions: human
Protocol: as §2, §3

[8] = in vitro; conditions: mouse, mouse serum, Half-life time mouse serum, 37°C
Protocol: Peptide solutions (1 g/L) were added to mouse serum to obtain final concentrations of 70 mg/L peptide and incubated under constant shaking at 37°C. After 0, 1, 2, 3, and 6 h aliquots (95 μL) were precipitated with aqueous TCA (25 μL, 15% w/v), incubated for 10 min on ice, and centrifuged (5 min, 12,000 × g, Eppendorf mini spin centrifuge). An aliquot of the supernatant (95 μL) was neutralized with sodium hydroxide (8 μL, 1 mol/L) and diluted with aqueous acetonitrile solution (3% acetonitrile, 0.1% TFA; 200 μL). Peptides were quantified by the peak areas obtained by analytical RP-HPLC on a Jupiter C18-column (ID: 2 mm) using a linear aqueous acetonitrile gradient with 0.1% (v/v) TFA (absorbance recorded at 214 nm). Peak areas of all time points were normalized to the initial peak area obtained after “0 min incubation” (= 100%). Experiments were carried out as triplicates in parallel and half-life times were calculated using GraphPad Prism 5.0.

Compound: CC[C@H](C)[C@H](NC(=O)[C@H](CCCN)N=C(N(C)C)N(C)C)C(=O)N[C@@H](CCCN)C(=O)N[C@H](C(=O)N[C@@H](CCCN)C(=O)N[C@H](C(=O)N[C@@H](CCCN)C(=O)N[C@@H](CCCNC(=N)N)C(=O)N1CCC[C@H]1C(=O)N[C@H](C(=O)N[C@@H](Cc1ccc(O)cc1)C(=O)N[C@@H](CCCN)C(=O)N1CCC[C@H]1C(=O)N[C@@H](CCCNC(=N)N)C(=O)N1CCC[C@H]1C(=O)N[C@@H](CCCNC(=N)N)C(=O)N1CCC[C@H]1C(=O)N1CCC[C@H]1C(=O)N[C@@H](Cc1c[nH]cn1)C(=O)N1CCC[C@H]1C(=O)N[C@@H](CCCNC(=N)N)C(=O)N[C@@H](CC(C)C)C(=O)O)C(C)C)[C@@H](C)CC)[C@@H](C)CC [Api796, GuO(IO)3RPVYOPRPRPPHPRL] ({Orn(α-tetramethylguanidino)}-I[Orn]I[Orn]I[Orn]RPVY[Orn]PRPRPPHPRL-OH)
- MIC E. coli ATCC 25922 [1]: 8 µg/mL (≈ 2.91 µM)
- IC50 on cell viability [2]: >0.6 g/L
- viability at 24 h, 0.6 g/L [3]: ~60%
- IC50 on cell viability [4]: >0.6 g/L
- MIC K. pneumoniae DSM 681 [5]: 16 µg/mL (≈ 5.83 µM)
- IC50 on cell viability [6]: >0.6 g/L
- viability at 24 h, 0.6 g/L [7]: 61 ± 14%
- half-life at 70 mg/L [8]: 249 min
